Data taken from US12459918B2, “Isoquinolinone derivatives serving as rock protein kinase inhibitors and use thereof” (GUANGZHOU OCUSUN OPHTHALMIC BIOTECHNOLOGY CO., LTD., priority 2019, dated 2025).

How the values were obtained:
[1] = test system: New Zealand rabbits with acute ocular hypertension; assay: Intraocular pressure reduction experiment in New Zealand rabbits with acute ocular hypertension, experiment operation 2; assay type: in vivo; conditions: for Intraocular pressure in the left eye: left eye (solvent, not modeled)
From the text: Experimental Example 3. Intraocular Pressure Reduction Experiment in New Zealand Rabbits with Acute Ocular Hypertension
Acute ocular hypertension of rabbits were induced by anterior chamber injection of a viscoelastic agent and the intraocular pressure reduction action of compound 60 and compound 63 at different concentrations were explored by eye-drop administration.
Male New Zealand rabbits, aged 97-127 days, weighted 2.5-3.4 kg, purchased from PizhouDongfang Breeding Co. Ltd.
50 male New Zealand rabbits were randomly divided into 5 groups according to body weight, with 10 rabbits/per group Animals in 1-5 groups were injected with medical sodium hyaluronate gel in the anterior chamber of right eye in a single dose, 100 μL/eye, to induce ocular hypertension. In 5-15 minutes after modeling, the right eye was respectively dropped with a solvent, K-115 and test samples (compound 63 at different concentrations), the left eye was dropped with a solvent, the volume of the administration was all 50 μL/eye, and intraocular pressure in both eyes of the animals was measured before administration and in 2, 4, 6, 8 and 10 hours after administration, respectively.

[2] = test system: New Zealand rabbits with normal intraocular pressure; assay: Reduction of intraocular pressure by repeated eye-drop administration for 14 days, experiment operation 1; assay type: in vivo; conditions: for Change of intraocular pressure: negative control minus group
From the text: Experimental example 4. Experiment on reduction of intraocular pressure and ocular toxicity of New Zealand rabbits with normal intraocular pressure by repeated eye-drop administration for 14 days
The intraocular pressure reduction action and the potential ocular toxicity of compound 63 were explored by 14 days of repeated eye-drop administration in rabbits with normal intraocular pressure.
Male New Zealand rabbits, aged 97-127 days, weighted 2.6-3.5 kg, purchased from PizhouDongfang Breeding Co. Ltd.
The male New Zealand rabbits were randomly divided into 7 groups, with 6 rabbits per group. Animals were randomly divided according to body weight Animals in 1-7 groups were eye-dropped with solvent/control sample/test sample in both eyes, the volume of the administration was all 50 μL/eye, once per day for 14 consecutive days, and the day of the administration was recorded as Day 1. On Day 1, intraocular pressure of the animals was measured before the administration and in 1, 2, 4, 6, 8 and 10 hours after the administration, respectively; on Days 2-14, intraocular pressure of the animals was measured in 1 hour after daily administration for the group administered with K-115, and intraocular pressure of the animal was measured in 4 hours after daily administration for the other groups.

[3] = 0.5 mg/mL once per day, Day 2, 4 hours after daily administration
[4] = 0.5 mg/mL once per day, Day 3, 4 hours after daily administration
[5] = 0.5 mg/mL once per day, Day 4, 4 hours after daily administration
[6] = 0.5 mg/mL once per day, Day 5, 4 hours after daily administration
[7] = 0.5 mg/mL once per day, Day 6, 4 hours after daily administration
[8] = 0.5 mg/mL once per day, Day 7, 4 hours after daily administration
[9] = 1.0 mg/mL once per day, Day 2, 4 hours after daily administration
[10] = 1.0 mg/mL once per day, Day 3, 4 hours after daily administration
[11] = 1.0 mg/mL once per day, Day 4, 4 hours after daily administration
[12] = 1.0 mg/mL once per day, Day 5, 4 hours after daily administration
[13] = 1.0 mg/mL once per day, Day 6, 4 hours after daily administration
[14] = 1.0 mg/mL once per day, Day 7, 4 hours after daily administration

Cc1ccc(C(=O)OCn2cc(C)c3c(S(=O)(=O)N4CC[C@H](N)C4)cccc3c2=O)c(C)c1 [Compound 63]
Intraocular pressure in the left eye ([1]; 0.25 mg/mL group, 2 hours after administration): 6.07 mmHg
Intraocular pressure in the left eye ([1]; 0.25 mg/mL group, 4 hours after administration): 6.60 mmHg
Intraocular pressure in the left eye ([1]; 0.25 mg/mL group, 6 hours after administration): 9.10 mmHg
Intraocular pressure in the left eye ([1]; 0.25 mg/mL group, 8 hours after administration): 11.50 mmHg
Intraocular pressure in the left eye ([1]; 0.25 mg/mL group, 10 hours after administration): 12.43 mmHg
Intraocular pressure in the left eye ([1]; 0.25 mg/mL group, before administration): 10.53 mmHg
Intraocular pressure in the right eye ([1]; 0.25 mg/mL in right eye (induced ocular hypertension), 2 hours after administration): 8.47 mmHg
Intraocular pressure in the right eye ([1]; 0.25 mg/mL in right eye (induced ocular hypertension), 4 hours after administration): 8.60 mmHg
Intraocular pressure in the right eye ([1]; 0.25 mg/mL in right eye (induced ocular hypertension), 6 hours after administration): 11.20 mmHg
Intraocular pressure in the right eye ([1]; 0.25 mg/mL in right eye (induced ocular hypertension), 8 hours after administration): 13.37 mmHg
Intraocular pressure in the right eye ([1]; 0.25 mg/mL in right eye (induced ocular hypertension), 10 hours after administration): 13.10 mmHg
Intraocular pressure in the right eye ([1]; 0.25 mg/mL in right eye (induced ocular hypertension), before administration): 11.43 mmHg
Intraocular pressure in the left eye ([1]; 2.0 mg/mL group, 2 hours after administration): 6.60 mmHg
Intraocular pressure in the left eye ([1]; 2.0 mg/mL group, 4 hours after administration): 7.04 mmHg
Intraocular pressure in the left eye ([1]; 2.0 mg/mL group, 6 hours after administration): 11.23 mmHg
Intraocular pressure in the left eye ([1]; 2.0 mg/mL group, 8 hours after administration): 12.84 mmHg
Intraocular pressure in the left eye ([1]; 2.0 mg/mL group, 10 hours after administration): 13.10 mmHg
Intraocular pressure in the left eye ([1]; 2.0 mg/mL group, before administration): 11.27 mmHg
Intraocular pressure in the right eye ([1]; 2.0 mg/mL in right eye (induced ocular hypertension), 2 hours after administration): 8.52 mmHg
Intraocular pressure in the right eye ([1]; 2.0 mg/mL in right eye (induced ocular hypertension), 4 hours after administration): 11.56 mmHg
Intraocular pressure in the right eye ([1]; 2.0 mg/mL in right eye (induced ocular hypertension), 6 hours after administration): 13.81 mmHg
Intraocular pressure in the right eye ([1]; 2.0 mg/mL in right eye (induced ocular hypertension), 8 hours after administration): 12.96 mmHg
Intraocular pressure in the right eye ([1]; 2.0 mg/mL in right eye (induced ocular hypertension), 10 hours after administration): 11.96 mmHg
Intraocular pressure in the right eye ([1]; 2.0 mg/mL in right eye (induced ocular hypertension), before administration): 11.23 mmHg
Intraocular pressure in the left eye ([1]; 8.0 mg/mL group, 2 hours after administration): 5.93 mmHg
Intraocular pressure in the left eye ([1]; 8.0 mg/mL group, 4 hours after administration): 6.43 mmHg
Intraocular pressure in the left eye ([1]; 8.0 mg/mL group, 6 hours after administration): 10.10 mmHg
Intraocular pressure in the left eye ([1]; 8.0 mg/mL group, 8 hours after administration): 11.87 mmHg
Intraocular pressure in the left eye ([1]; 8.0 mg/mL group, 10 hours after administration): 13.19 mmHg
Intraocular pressure in the left eye ([1]; 8.0 mg/mL group, before administration): 11.20 mmHg
Intraocular pressure in the right eye ([1]; 8.0 mg/mL in right eye (induced ocular hypertension), 2 hours after administration): 7.40 mmHg
Intraocular pressure in the right eye ([1]; 8.0 mg/mL in right eye (induced ocular hypertension), 4 hours after administration): 7.97 mmHg
Intraocular pressure in the right eye ([1]; 8.0 mg/mL in right eye (induced ocular hypertension), 6 hours after administration): 8.84 mmHg
Intraocular pressure in the right eye ([1]; 8.0 mg/mL in right eye (induced ocular hypertension), 8 hours after administration): 8.60 mmHg
Intraocular pressure in the right eye ([1]; 8.0 mg/mL in right eye (induced ocular hypertension), 10 hours after administration): 8.78 mmHg
Intraocular pressure in the right eye ([1]; 8.0 mg/mL in right eye (induced ocular hypertension), before administration): 11.53 mmHg
Mean intraocular pressure of both eyes ([2]; 0.5 mg/mL both eyes, Day 1, 1 hour after administration): 8.83 mmHg
Mean intraocular pressure of both eyes ([2]; 0.5 mg/mL both eyes, Day 1, 2 hours after administration): 7.56 mmHg
Mean intraocular pressure of both eyes ([2]; 0.5 mg/mL both eyes, Day 1, 4 hours after administration): 7.11 mmHg
Mean intraocular pressure of both eyes ([2]; 0.5 mg/mL both eyes, Day 1, 6 hours after administration): 9.61 mmHg
Mean intraocular pressure of both eyes ([2]; 0.5 mg/mL both eyes, Day 1, 8 hours after administration): 9.06 mmHg
Mean intraocular pressure of both eyes ([2]; 0.5 mg/mL both eyes, Day 1, 10 hours after administration): 9.97 mmHg
Mean intraocular pressure of both eyes ([2]; 0.5 mg/mL both eyes, Day 1, before administration): 10.11 mmHg
Mean intraocular pressure of both eyes [2, 3]: 7.94 mmHg
Change of intraocular pressure [2, 3]: 3.14 mmHg
Mean intraocular pressure of both eyes [2, 4]: 7.31 mmHg
Change of intraocular pressure [2, 4]: 3.08 mmHg
Mean intraocular pressure of both eyes [2, 5]: 7.78 mmHg
Change of intraocular pressure [2, 5]: 2.83 mmHg
Mean intraocular pressure of both eyes [2, 6]: 7.19 mmHg
Change of intraocular pressure [2, 6]: 3.78 mmHg
Mean intraocular pressure of both eyes [2, 7]: 6.61 mmHg
Change of intraocular pressure [2, 7]: 2.7 mmHg
Mean intraocular pressure of both eyes [2, 8]: 6.00 mmHg
Change of intraocular pressure [2, 8]: 4.06 mmHg
Change of intraocular pressure ([2]; 0.5 mg/mL once per day, Day 8, 4 hours after daily administration): 4.2 mmHg
Change of intraocular pressure ([2]; 0.5 mg/mL once per day, Day 9, 4 hours after daily administration): 3.25 mmHg
Change of intraocular pressure ([2]; 0.5 mg/mL once per day, Day 10, 4 hours after daily administration): 3 mmHg
Change of intraocular pressure ([2]; 0.5 mg/mL once per day, Day 11, 4 hours after daily administration): 3.25 mmHg
Change of intraocular pressure ([2]; 0.5 mg/mL once per day, Day 12, 4 hours after daily administration): 3.28 mmHg
Change of intraocular pressure ([2]; 0.5 mg/mL once per day, Day 13, 4 hours after daily administration): 3.31 mmHg
Change of intraocular pressure ([2]; 0.5 mg/mL once per day, Day 14, 4 hours after daily administration): 3.72 mmHg
Change of intraocular pressure ([2]; 0.5 mg/mL, Day 1, 1 hour after administration): 1.48 mmHg
Change of intraocular pressure ([2]; 0.5 mg/mL, Day 1, 2 hours after administration): 3.41 mmHg
Change of intraocular pressure ([2]; 0.5 mg/mL, Day 1, 4 hours after administration): 4.2 mmHg
Change of intraocular pressure ([2]; 0.5 mg/mL, Day 1, 6 hours after administration): 2.33 mmHg
Change of intraocular pressure ([2]; 0.5 mg/mL, Day 1, 8 hours after administration): 3.91 mmHg
Change of intraocular pressure ([2]; 0.5 mg/mL, Day 1, 10 hours after administration): 4.45 mmHg
Change of intraocular pressure ([2]; 0.5 mg/mL, Day 1, before administration): −0.22 mmHg
Mean intraocular pressure of both eyes ([2]; 1.0 mg/mL both eyes, Day 1, 1 hour after administration): 7.08 mmHg
Mean intraocular pressure of both eyes ([2]; 1.0 mg/mL both eyes, Day 1, 2 hours after administration): 6.67 mmHg
Mean intraocular pressure of both eyes ([2]; 1.0 mg/mL both eyes, Day 1, 4 hours after administration): 6.44 mmHg
Mean intraocular pressure of both eyes ([2]; 1.0 mg/mL both eyes, Day 1, 6 hours after administration): 8.00 mmHg
Mean intraocular pressure of both eyes ([2]; 1.0 mg/mL both eyes, Day 1, 8 hours after administration): 9.22 mmHg
Mean intraocular pressure of both eyes ([2]; 1.0 mg/mL both eyes, Day 1, 10 hours after administration): 10.56 mmHg
Mean intraocular pressure of both eyes ([2]; 1.0 mg/mL both eyes, Day 1, before administration): 9.94 mmHg
Mean intraocular pressure of both eyes [2, 9]: 7.64 mmHg
Change of intraocular pressure [2, 9]: 3.44 mmHg
Mean intraocular pressure of both eyes [2, 10]: 7.50 mmHg
Change of intraocular pressure [2, 10]: 2.89 mmHg
Mean intraocular pressure of both eyes [2, 11]: 7.33 mmHg
Change of intraocular pressure [2, 11]: 3.28 mmHg
Mean intraocular pressure of both eyes [2, 12]: 7.44 mmHg
Change of intraocular pressure [2, 12]: 3.53 mmHg
Mean intraocular pressure of both eyes [2, 13]: 6.92 mmHg
Change of intraocular pressure [2, 13]: 2.39 mmHg
Mean intraocular pressure of both eyes [2, 14]: 7.00 mmHg
Change of intraocular pressure [2, 14]: 3.06 mmHg
Change of intraocular pressure ([2]; 1.0 mg/mL once per day, Day 8, 4 hours after daily administration): 4.03 mmHg
Change of intraocular pressure ([2]; 1.0 mg/mL once per day, Day 9, 4 hours after daily administration): 2.5 mmHg
Change of intraocular pressure ([2]; 1.0 mg/mL once per day, Day 10, 4 hours after daily administration): 2.44 mmHg
Change of intraocular pressure ([2]; 1.0 mg/mL once per day, Day 11, 4 hours after daily administration): 2.19 mmHg
Change of intraocular pressure ([2]; 1.0 mg/mL once per day, Day 12, 4 hours after daily administration): 2.64 mmHg
Change of intraocular pressure ([2]; 1.0 mg/mL once per day, Day 13, 4 hours after daily administration): 3.33 mmHg
Change of intraocular pressure ([2]; 1.0 mg/mL once per day, Day 14, 4 hours after daily administration): 3.53 mmHg
Change of intraocular pressure ([2]; 1.0 mg/mL, Day 1, 1 hour after administration): 3.23 mmHg
Change of intraocular pressure ([2]; 1.0 mg/mL, Day 1, 2 hours after administration): 4.3 mmHg
Change of intraocular pressure ([2]; 1.0 mg/mL, Day 1, 4 hours after administration): 4.87 mmHg
Change of intraocular pressure ([2]; 1.0 mg/mL, Day 1, 6 hours after administration): 3.94 mmHg
Change of intraocular pressure ([2]; 1.0 mg/mL, Day 1, 8 hours after administration): 3.75 mmHg
Change of intraocular pressure ([2]; 1.0 mg/mL, Day 1, 10 hours after administration): 3.86 mmHg
